Earlier results, collected in patent publication US20060094734A1, “Composition and method for inducing alertness” (priority 2004, published 2006).

Tested on: rats
Conditions: rat, in vivo

Question: With `NCCS(=O)(=O)O` [taurine, 2-aminoethanesulfonic acid] as the compound, how does the “LD 50” value read?
Answer: greater than 5,000 mg/kg
